The values that follow come from patent US20230181608A1, “NUTRIENT COMPOSITION, FOOD INCLUDING THE SAME AND USE OF THE NUTRIENT COMPOSITION” (Heilongjiang Feihe Dairy Co., Ltd., priority 2021, published 2023).

Common to all, as to assay type: cell-based, newborn rats and mice
The test system of test [1] is oligodendrocyte precursor cells (A2B5 positive cells). The test is described as follows: number of A2B5 positive cells (number of OPCs) after 12 DIVs, primary mixed culture of neurons and OL. To be noted: for effect on the number of A2B5 positive cells (proliferation of oligodendrocyte precursor cells), in words: in comparison with the blank control group / with the components alone. How it is done:
All experiments were approved by ethics, and the primary mixed culture of neurons and OL were carried out according to the following steps. Briefly, the forebrain of newborn rats and mice were dissociated with trypsin (Trypsin EDTA 1X, PAN BIOTECH) at 37° C. for 20 minutes. After addition of Dulbecco modified Eagle medium (DMEM, PAN BIOTECH) containing DNAase I Grade II (0.1 mg/ml, PAN BIOTECH) and 10% fetal bovine serum (FCS, GIBCO), the reaction was stopped. The cells were mechanically separated three times through a 10 ml pipette, and then centrifuged at 4° C. under 515 g for 10 minutes. Living cells were inoculated in 96-well plates (20000/well), which were pre-coated with poly-L-lysine (BD Falcon) and laminin (Sigma). The culture medium consists of Neurobasal (GIBCO) added with 2% B27 (GIBCO), 2 mM L-glutamine (L Glu, PAN BIOTECH), 2% P/S solution (PAN BIOTECH), 1% FCS and 10 ng/ml platelet-derived growth factor (PDGF-AA, PAN BIOTECH). The 96-well plates are stored in a humidified incubator, at a temperature of 37° C. and with an environment of air (95%) - CO2 (5%). […] Half of the medium were replaced every other day. A mixture or separate nutrition were added to the fresh medium (the nutrient composition prepared above, containing 2′-FL, choline and/or milk fat global membrane). After 12, 18 and 30 DIVs, the cells were fixed with a cold mixture of 95% ethanol and acetic acid (5%) for 5 minutes. The non-specific sites were then blocked for 15 minutes at room temperature with a phosphate buffered saline (PBS) solution containing 0.1% saponin (Sigma) and 1% FCS (GIBCO). […] Finally, a secondary goat anti-rabbit antibody (diluted 1/400, SIGMA, SAB460084) was used to co-incubate at room temperature for 1 h. ImageXpress equipped with LED lights (360/480/565 for excitation and 460/535/620 for emission) is used for 20× amplification. All images are acquired using the same settings. […] Cells were inoculated on a 96-well plate and cultured for a certain period of time. Half of the culture medium was replaced every other day. […] The blank control group, positive control group and sample intervention group were compared, respectively. […] See Table 2 below for specific experimental dosage.

Test [2] concerns oligodendrocyte precursor cells (MAG positive cells). Nature of the test: number of MAG positive cells after 18 DIVs (OPC differentiation/myelination), primary mixed culture of neurons and OL. As to conditions: for effect on the number of MAG positive cells (myelination of oligodendrocyte precursor cells), in words: in comparison with the blank control group / with the components alone. The procedure:
(§1) All experiments were approved by ethics, and the primary mixed culture of neurons and OL were carried out according to the following steps. Briefly, the forebrain of newborn rats and mice were dissociated with trypsin (Trypsin EDTA 1X, PAN BIOTECH) at 37° C. for 20 minutes. After addition of Dulbecco modified Eagle medium (DMEM, PAN BIOTECH) containing DNAase I Grade II (0.1 mg/ml, PAN BIOTECH) and 10% fetal bovine serum (FCS, GIBCO), the reaction was stopped. The cells were mechanically separated three times through a 10 ml pipette, and then centrifuged at 4° C. under 515 g for 10 minutes.
(§2) Living cells were inoculated in 96-well plates (20000/well), which were pre-coated with poly-L-lysine (BD Falcon) and laminin (Sigma). The culture medium consists of Neurobasal (GIBCO) added with 2% B27 (GIBCO), 2 mM L-glutamine (L Glu, PAN BIOTECH), 2% P/S solution (PAN BIOTECH), 1% FCS and 10 ng/ml platelet-derived growth factor (PDGF-AA, PAN BIOTECH). The 96-well plates are stored in a humidified incubator, at a temperature of 37° C. and with an environment of air (95%) - CO2 (5%).
(§3) A same number of cells were placed on 48-well plates, and then incubated for 12, 18 or 30 DIVs. Half of the medium were replaced every other day. A mixture or separate nutrition were added to the fresh medium (the nutrient composition prepared above, containing 2′-FL, choline and/or milk fat global membrane).
(§4) After 12, 18 and 30 DIVs, the cells were fixed with a cold mixture of 95% ethanol and acetic acid (5%) for 5 minutes. The non-specific sites were then blocked for 15 minutes at room temperature with a phosphate buffered saline (PBS) solution containing 0.1% saponin (Sigma) and 1% FCS (GIBCO).
At 18 DIVs, nerve cells were co-incubated with mouse monoclonal antibody MAG (dilution: 1/400, Millipore, MAB1567) and neurofilament protein antibody (dilution: 1/500, Sigma, N4142) for 2 h. Then a secondary goat […] antibody (dilution: 1/400, Sigma, SAB4600042) and a secondary goat anti-rabbit antibody (dilution: 1/400, SIGMA, SAB4600084) were used to co-incubate at room temperature for 1 h.
(§5) ImageXpress equipped with LED lights (360/480/565 for excitation and 460/535/620 for emission) is used for 20× amplification. All images are acquired using the same settings.
The differentiation of OPC into OL was evaluated by counting the number of MAG positive cells in cell culture. The results were expressed as the average number of cells per image and per well. The morphological maturity of MAG positive cells were assessed by measuring the average surface area of MAG positive cells in 18 DIV wells ([…]/image/well).
(§6) Cells were inoculated on a 96-well plate and cultured for a certain period of time. Half of the culture medium was replaced every other day. Varying concentrations of mixed or separate 2′-FL mixtures were added to the special culture medium for fresh primary cells (added on day 12, 18 and 30, respectively). 6 replicas for each sample. […] The blank control group, positive control group and sample intervention group were compared, respectively. The effects of milk fat global membrane, 2′-FL and choline, alone or in mixture, on OPC population, OL maturation and differentiation, myelin formation and neurite growth was determined by immunohistochemistry (MBP, NF, A2B5). See Table 2 below for specific experimental dosage.
In order to measure the effect of mixed nutrition or single nutrition treatment on OPC cell myelination, we evaluated the number of positive cells labelled MAG after 18 DIVs.

In test [3] the test system is oligodendrocyte precursor cells (MBP positive cells). Nature of the test: number of MBP positive cells after 30 DIVs (OPC/OL maturation), primary mixed culture of neurons and OL. To be noted: for effect on the number of MBP positive cells (maturation of oligodendrocyte precursor cells), in words: in comparison with the blank control group / with the components alone. How it is done: as §1, §2, §3, §4
At 30 DIVs, nerve cells were co-incubated with mouse monoclonal antibody MBP (dilution: 1/1000, Novus, NBP1-05204) and neurofilament protein antibody (dilution: 1/500, Sigma, N4142) for 2 hours. Then a secondary goat anti-mouse antibody (dilution: 1/800, Sigma, SAB4600042) and a secondary goat anti-rabbit antibody (dilution: 1/400, SIGMA, SAB4600084) were used to co-incubate at room temperature for 1 h.
as §5
At 30 DIVs, the maturity of OL was estimated by calculating the number of MBP positive cells (average number of cells per imge, per well) and the average surface area of MBP positive cells at 30 DIVs ([…], per image, per well).
as §6
In order to measure the effect of mixed nutrition or single nutrition treatment on OPC cell maturation, we evaluated the number of MBP positive cells after 30DIVs.

Where [4] appears, read: high dosage: 2′-FL 20, milk fat globule membrane 55, choline 6.5 mg/ml (those present).
Setting [5] is: low dosage: 2′-FL 0.2, milk fat globule membrane 0.55, choline 0.065 mg/ml (those present).
[6] abbreviates: medium dosage: 2′-FL 2, milk fat globule membrane 5.5, choline 0.65 mg/ml (those present).
[7] abbreviates: low dosage: milk fat globule membrane 0.55 or choline 0.065 mg/ml.

For the molecule `CC1O[C@@H](OC2[C@H](O[C@@H]3C(CO)O[C@H](O)C(O)[C@@H]3O)OC(CO)[C@H](O)[C@H]2O)C(O)[C@H](O)[C@@H]1O` (stereo partly drawn) [2′-FL, 2′-fucosyl lactose], the figures for the “increase of the number of A2B5 positive cells relative to the blank control group (Cell Experiment Example 1)” value in test [1] (setting [4]) and in test [1] (setting [6]) were 18.33 and 39.33, respectively. Besides, the “number of A2B5 positive cells (mean±standard deviation)” value in test [1] (setting [4]) is reported as 135.00±6.08; in test [1] (setting [5]) it was 151.33±4.73; in test [1] (setting [6]), 156.00 ±5.57. The “effect on the number of A2B5 positive cells (proliferation of oligodendrocyte precursor cells), in words” value in test [1] is recorded as “may increase the number of A2B5 positive cells”. Further, the “increase of the number of MAG positive cells relative to the blank control group (Cell Experiment Example 1)” value came to 21.33 in test [2] (setting [4]) and 35.66 in test [2] (setting [6]). In addition, the “number of MAG positive cells (mean±standard deviation)” value in test [2] (setting [4]) worked out at 62.00±4.00; in test [2] (setting [5]) it was 54.00±6.08; in test [2] (setting [6]), 76.33±4.51. Also, the “effect on the number of MAG positive cells (myelination of oligodendrocyte precursor cells), in words” value in test [2] is on record as “could increase the number of MAG positive cells”. Besides, the “increase of the number of MBP positive cells relative to the blank control group (Cell Experiment Example 1)” value came out at 20.67 in test [3] (setting [4]) and 42.34 in test [3] (setting [6]). The results for the “number of MBP positive cells (mean±standard deviation)” value in test [3] (setting [4]), in test [3] (setting [5]) and in test [3] (setting [6]) were 83.00±5.29, 104.00±4.58 and 104.67±5.03 * *, respectively. Moreover, the “effect on the number of MBP positive cells (maturation of oligodendrocyte precursor cells), in words” value in test [3] is given as “can increase the number of MBP positive cells”.
For the molecule `CC(C)CCC[C@@H](C)[C@H]1CC[C@H]2[C@@H]3CCC4=CC(=NO)CC[C@]4(C)[C@H]3CC[C@]12C` [Olesoxime], the “number of A2B5 positive cells (mean±standard deviation)” value in test [1] (positive control, 300 nM) amounted to 171.33±3.51. Further, in test [2] (positive control, 300 nM), the “number of MAG positive cells (mean±standard deviation)” value is on record as 87.00±4.36. The “number of MBP positive cells (mean±standard deviation)” value in test [3] (positive control, 300 nM) was 124.00±3.61.
Consider `C[N+](C)(C)CCO.[Cl-]` [choline, choline chloride], for which the “increase of the number of A2B5 positive cells relative to the blank control group (Cell Experiment Example 1)” value in test [1] (setting [4]) was -9; in test [1] (setting [7]), 50.66; in test [1] (setting [6]), 109. Moreover, the figures for the “number of A2B5 positive cells (mean±standard deviation)” value in test [1] (setting [4]), in test [1] (setting [5]) and in test [1] (setting [6]) were 107.67±6.03, 167.33±3.51 and 225.67±5.03, respectively. Also, in test [1], the “effect on the number of A2B5 positive cells (proliferation of oligodendrocyte precursor cells), in words” value is given as “may increase the number of A2B5 positive cells”. The “increase of the number of MAG positive cells relative to the blank control group (Cell Experiment Example 1)” value in test [2] (setting [4]) was determined as 40.66; in test [2] (setting [7]) it was 25.66; in test [2] (setting [6]) it was 53.33. The entries for the “number of MAG positive cells (mean±standard deviation)” value in test [2] (setting [4]), in test [2] (setting [5]) and in test [2] (setting [6]) were 81.33±3.21, 66.33±6.03 and 94.00±4.58, respectively. The “effect on the number of MAG positive cells (myelination of oligodendrocyte precursor cells), in words” value in test [2] is recorded as “could increase the number of MAG positive cells”. Besides, the “increase of the number of MBP positive cells relative to the blank control group (Cell Experiment Example 1)” value in test [3] (setting [4]) came to 5.67; in test [3] (setting [7]), 51; in test [3] (setting [6]), 71.34. In addition, the “number of MBP positive cells (mean±standard deviation)” value in test [3] (setting [4]) amounted to 68.00±2.65; in test [3] (setting [5]), 113.33±5.69; in test [3] (setting [6]), 133.67±4.16. In test [3], the “effect on the number of MBP positive cells (maturation of oligodendrocyte precursor cells), in words” value is recorded as “can increase the number of MBP positive cells”.
